Assay results as given in patent US10517862B2, “Fused heterocyclic compound derivative and application thereof” (NHWA PHARMA. CORPORATION, priority 2015, dated 2019).

Experiments:
D2 receptor = D2 receptor binding assay (3H-Spiperone, rat striatum membrane); details: for affinity with D2 (in words): summary of in vitro assay; for D2 Inhibition rate (%): test compound final concentration 10^−5 M, 3H-Spiperone, rat striatum membrane
Procedure: Preparation of D2 Membrane
Rats were decapitated on ice. […] The weight of the homogenized tubes were adjusted using a balance, and centrifugation was conducted. […] Centrifugation was conducted.
(§1) Materials for the Receptor Binding Assay

5HT1A receptor = molecular target: T1, 5HT1A receptor (Rattus norvegicus, UniProt P19327); assay: 5HT1A receptor binding assay (3H-8-OH-DPAT, rat striatum membrane); details: for affinity with 5HT1A (in words): summary of in vitro assay; for inhibition at 10 µM: test compound final concentration 10^−5 M, 3H-8-OH-DPAT, rat striatum membrane, read-out: 5HT1A Inhibition rate (%)
T1 construct: Rats were decapitated on ice; from tissue; host or cells: rat brain striatum
T1 sequence (P19327 1-422): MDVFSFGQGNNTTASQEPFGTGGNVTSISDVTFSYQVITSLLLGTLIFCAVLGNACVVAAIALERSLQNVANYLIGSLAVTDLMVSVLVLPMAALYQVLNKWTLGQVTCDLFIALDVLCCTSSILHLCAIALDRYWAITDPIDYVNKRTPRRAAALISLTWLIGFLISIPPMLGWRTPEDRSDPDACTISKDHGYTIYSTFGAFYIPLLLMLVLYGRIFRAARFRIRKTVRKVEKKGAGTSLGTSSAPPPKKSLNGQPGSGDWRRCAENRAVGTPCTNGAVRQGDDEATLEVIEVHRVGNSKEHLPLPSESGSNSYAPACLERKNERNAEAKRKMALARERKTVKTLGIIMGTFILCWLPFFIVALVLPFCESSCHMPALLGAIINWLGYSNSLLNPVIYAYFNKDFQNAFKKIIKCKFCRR
Procedure: Preparation of 5HT1A Membrane
Rats were decapitated on ice. […] Incubation at 37° C. was conducted for 10 min. […] Centrifugation was conducted at 12000 rpm, 4° C. for 20 min. […] Centrifugation was conducted and repeated 3 times.
as §1

D3 receptor = molecular target: T2, D3 receptor (Homo sapiens, UniProt P35462); assay: D3 receptor assay ([3H]-Spiperone, HEK-293 cells); type: binding; details: for affinity with D3 (in words): summary of in vitro assay; for inhibition at 10 µM: test compound final concentration 10 μmol/L, [3H]-Spiperone, HEK-293 cells, read-out: D3 Inhibition rate (%)
T2 construct: expressed in transfected cells; host or cells: HEK-293

[1] = system: α1 norepinephrine receptor; assay: α1 norepinephrine receptor binding assay (3H-prazosin, rat cortex membrane); details: for affinity with α1 (in words): summary of in vitro assay; for α1 Inhibition rate (%): test compound final concentration 10^−5 M, 3H-prazosin, rat cortex membrane
Description: Preparation of Receptor Membrane of Norepinephrine
α1 Norepinephrine Receptor Binding Assay

mice of Kunming breed [2] = assay: MK-801 induced high activity in mice; type: in vivo; details: Mus musculus, 1.5 h, po, MK-801 0.1 mg/kg ip, spontaneous activities in 90 min
Procedure: Example 54: MK-801 Induced High Activity—the In Vivo Anti-Schizophrenia Activity of the Compounds
Healthy mice of Kunming breed (with half male and half female, (20±2) g) were provided by Qinglongshan Animal Cultivation Center, Nanjing.
Ascorbic acid was provided by Sinopharm Chemical Reagent Co. Ltd.
MK-801 was produced by Sigma Company, USA; the formulation method: 0.1% vitamin C was used to formulate a 1 mg/ml solution.
Test positive drugs: haloperidol, clozapine, risperidone, olanzapine, aripiprazole, ziprasidone, quetiapine.
Tween 80, with the concentration of 10%.
Mice with qualified body weight were selected, and randomly divided into blank group, model group, positive control group (risperidone group) and drug group. […] 1 h after the administration, 0.1% concentration of ascorbic acid was intraperitoneally injected to the blank group at 0.1 ml/10 g; and the model group, the positive control group (30 min) and the drug group were intraperitoneally injected the MK-801 solution at 0.1 mg/kg. Subsequently, the spontaneous activities of the mice of each group in 90 min were measured.

mice of Kunming breed [3] = assay: Apomorphine induced clambering assay of mice; type: in vivo; details: Mus musculus; mice, po; apomorphine 1 mg/kg sc 1 hour after administration; read-out: Apomorphine induced clambering (ED50, po, mg/kg)
Procedure: Healthy mice of Kunming breed (KM) (male, with body weight of 18-22 g) were provided by Qinglongshan Animal Cultivation Center, Nanjing.
Apomorphine provided by Sigma Company was dissolved in 0.9% NaCl (containing 0.1% vitamin C) before use, and was freshly formulated before use.
Vitamin C, F20061113, was provided by Sinopharm Chemical Reagent Co. Ltd.
Sodium chloride injection, H32026305, was provided by Xuzhou No. 5 Pharmaceutical Factory Co. Ltd.
Instruments: self-made clambering cage, chronograph.
Procedures: apomorphine induced clambering assay of mice
After 5 min of adaptation, the behavior of the mice at 10-11, 20-21, and 30-31 min after the injection of apomorphine were observed and scored. Scoring criteria: the behavior of 4 paws on the floor was scored as 0; the behavior of 2 forepaws on the cage was scored as 1; and the behavior of 4 paws on the cage was scored as 2.

Catalepsy assay in mice = details: both sexes, Kunming, mouse, in vivo, po, bar test at 30, 60, 90 min
Procedure: Healthy mice of Kunming breed (with half male and half female, (22±2) g) were provided by Qinglongshan Animal Cultivation Center, Nanjing.
Instruments: self-made bar-grabbing apparatus: stainless steel bar in mice box, which was 0.3 cm in diameter and […].
Corresponding solvent double-distilled water was administered intragastrically to the negative control group and the model group, corresponding positive drugs were administered intragastrically to the positive drug groups (a small amount of acetic acid was first added and then double-distilled water was added when dissolving), and corresponding dosages of compounds were administered intragastrically to the compound groups for each dosage, with the volume for intragastric administration as 0.1 ml/10 g. At 30 min, 60 min, 90 min after the intragastric administration, the two forepaws of the mice were gently placed on the bars (which were 20 cm in length, 0.3 cm in diameter, and 5.5 cm above the bench), and the hindpaws of the animals were placed on the bottom of the box. The durations of the mice to maintain the posture with the two forepaws on the bars were recorded, and 30 s of spasticity without moving was considered as the positive response. In the case the forepaws of the mice were not put down persistently, the observation was terminated at 60 s. The numbers of animals with positive response in each of the compound dosage groups were counted.

Histamine H1 receptor = Histamine H1 receptor (Rattus norvegicus, UniProt P31390); assay: Histamine H1 receptor binding assay (3H-pyrilamine, rat cerebellum membrane); details: for inhibition at 10 µM: read-out: H1 Inhibition rate (%); for affinity with H1 (in words): summary of in vitro assay
Histamine H1 receptor, sequence (P31390 whole entry): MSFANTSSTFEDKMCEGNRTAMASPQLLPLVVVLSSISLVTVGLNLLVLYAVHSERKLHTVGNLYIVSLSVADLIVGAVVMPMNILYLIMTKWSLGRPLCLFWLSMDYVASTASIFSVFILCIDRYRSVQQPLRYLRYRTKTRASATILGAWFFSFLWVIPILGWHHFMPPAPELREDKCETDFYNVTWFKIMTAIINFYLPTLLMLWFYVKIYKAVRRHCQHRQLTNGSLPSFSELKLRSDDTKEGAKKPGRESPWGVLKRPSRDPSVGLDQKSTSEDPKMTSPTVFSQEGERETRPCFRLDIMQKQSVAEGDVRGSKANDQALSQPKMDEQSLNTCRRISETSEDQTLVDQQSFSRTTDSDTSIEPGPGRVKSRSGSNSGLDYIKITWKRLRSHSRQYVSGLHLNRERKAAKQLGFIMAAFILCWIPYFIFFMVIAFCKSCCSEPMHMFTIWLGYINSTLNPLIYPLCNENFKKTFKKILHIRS
Procedure: The supernatant was discarded to give pellets, and homogenate F was added again to the pellets for washing. Centrifugation was conducted and repeated 3 times.
(2) 100 μL of membrane preparation was added into each reaction tube.

T2 sequence (P35462 whole entry): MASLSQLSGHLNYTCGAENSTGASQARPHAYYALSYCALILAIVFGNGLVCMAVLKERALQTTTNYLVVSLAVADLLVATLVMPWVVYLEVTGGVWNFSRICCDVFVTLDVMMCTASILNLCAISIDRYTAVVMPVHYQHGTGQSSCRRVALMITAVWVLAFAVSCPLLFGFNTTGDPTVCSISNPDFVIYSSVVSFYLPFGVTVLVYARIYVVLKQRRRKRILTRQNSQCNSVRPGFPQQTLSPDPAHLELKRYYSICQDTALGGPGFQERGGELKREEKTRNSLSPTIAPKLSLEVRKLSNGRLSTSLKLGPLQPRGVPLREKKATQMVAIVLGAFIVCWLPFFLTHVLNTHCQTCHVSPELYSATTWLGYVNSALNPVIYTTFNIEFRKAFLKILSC

SMILES	affinity with D2 (in words) (D2 receptor)	D2 Inhibition rate (%) (D2 receptor)	affinity with 5HT1A (in words) (5HT1A receptor)	inhibition at 10 µM (5HT1A receptor)	affinity with D3 (in words) (D3 receptor)	inhibition at 10 µM (D3 receptor)	affinity with α1 (in words) [1]	α1 Inhibition rate (%) [1]	ED50 (mice of Kunming breed [2])	ED50 (mice of Kunming breed [3])	ED50 (Catalepsy assay in mice)	inhibition at 10 µM (Histamine H1 receptor)	affinity with H1 (in words) (Histamine H1 receptor)
O=C(CCCN1CCC(c2noc3cc(F)ccc23)CC1)c1cc2c3c(c1)CCC(=O)N3CCC2 [Compound 5]	high affinities	99.40%	high affinities	99.8%	high affinities	98%	low affinities	43.75%	2.2 mg/kg	1.31 mg/kg	> 200 mg/kg	44.5%	low affinities
O=C(CCN1CCC(c2noc3cc(F)ccc23)CC1)c1cc2c3c(c1)CCN3C(=O)CC2 [Compound 12]	high affinities	97.75%	high affinities	96.5%	high affinities	94.9%	low affinities	58.91%	0.06 mg/kg	0.076 mg/kg	8.45 mg/kg	41.4%	low affinities
